“Also recorded” adds a separate entry of the source.
Columns and labels:
[1] = system: NK-92 cells expressing pHluorin-LAMP1; assay: Flow cytometry of green fluorescence of NK-92 cells expressing pHluorin-LAMP1; format: cell-based, human; details: for pHluorin fluorescence: PMA 100 ng/mL and Ionomycin 1 μg/mL together for 30 minutes
Protocol: Flow cytometry was performed to verify pHluorin-LAMP1 expression. Cells were untreated or treated with phorbol myristate acetate (PMA, 100 ng/mL,Sigma) and Ionomycin (1 μg/mL, Sigma) for 30 minutes or Concanamycin A (CMA, 100 nM, Sigma) for 90 minutes and samples were run on a Becton Dickinson FACSCalibur™.

resting human NK cells = details: cited from earlier work
neutrophils = details: cited from earlier work
[2] = system: NK92 cells expressing pHlourin-LAMP1; assay: Live cell TIRFm of lytic granule motility and persistence in activated pHluorin-LAMP1 NK92 cells; format: cell-based, human; details: for pre-degranulation motility of granules: 10 μM LatA added after 10 minutes, vs DMSO control; for number / accumulation of granules at the TIRF plane of the activated NK IS: LatA-treated cells, not quantified
Protocol: For NK92 lytic granule motility studies, pHluorin-LAMP1 NK92 cells were suspended in dye free RPMI 10% FBS media at a concentration of 7.5×10^5 to 10^6 cells/ml and incubated with 100 nM LysoTracker® Red DND-99 (Invitrogen) at 37° C. for 30 minutes, washed, and resuspended in media. ΔT culture dishes (Bioptechs) were coated with […] anti-NKp30 and -CD18, incubated at 37° C. for 1 hour or 4 degrees overnight, washed with PBS, and pre-warmed with dye free RPMI 10% FBS media. NK92 cells were plated on ΔT culture dishes immediately prior to imaging, and temperature was maintained at 37° C. throughout the experiment using a ΔT culture dish heater and lid (Bioptechs).
Cells were imaged in a single z-plane 10-15 minutes after addition to imaging chambers through an APO N TIRFm, oil immersion 60×1.49 NA objective using an Olympus IX-81 spinning disk confocal microscope with a rear-mounted TIRF illuminator and a Hamamatsu EM CCD C9100 camera. Excitation was by 480 nm (Spectra-Physics) and 561 nm (Cobalt) diode lasers through a LMM5 laser combiner unit (Spectral Applied Research). Cell image sequences were captured in TIRF mode at the interface between the cell and the glass over 60-80 minutes at 6 frames per minute using Volocity® software (PerkinElmer). Where indicated, cells were incubated with 10 μM LatA (Sigma) following 10 minutes of pre-incubation in the imaging chamber.
For TIRFm analysis, image sequences were analyzed using Volocity® software (PerkinElmer). LysoTracker® Red and pHluorin positive events were identified and cropped in Volocity®. Object tracks were generated over time using the “track objects manually” function and the rectangular selection tool for each event; the track length, track velocity, displacement, and displacement rate of each lytic granule were measured for both LysoTracker® Red time points and pHluorin time points, and comparatively graphed on GraphPad Prism® Version 5.0 (GraphPad software). Overlays of lytic granule tracks were generated by the plotting of X and Y coordinate values from Volocity with GraphPad Prism® for both Lysotracker® Red and pHluorin. To measure the time persistence of LysoTracker® Red lytic granules within the TIRF field, the time of LysoTracker® Red emergence on the TIRF field was subtracted from the time of pHlourin appearance or LysoTracker® Red disappearance and multiplied by 60 to obtain time persistence in seconds.
For LatA experiments, granules with both Lysotracker Red and pHluorin traces were identified and cropped in Volocity®. Objects were identified using a threshold of 3 SD above the mean field fluorescence for each timepoint to account for photobleaching using the “Find Objects Using SD Intensity” function. Objects smaller than 0.032 μm^2 were excluded from further analysis. Tracks were then generated using the “Track Objects” feature using the “Shortest Path” tracking model, and the track length, track velocity, displacement, displacement rate, and time span of each lytic granule tabulated and graphed using GraphPad Prism® software Version 5.0.
The sum fluorescent intensity and area of each granule was also recorded at each timepoint. Using the initial appearance of pHluorin-LAMP1 as time zero, the average sum fluorescent intensity post-degranulation was calculated and graphed for lytic granules treated with DMSO vehicle control versus those treated with LatA. For area measurements, the borders of individual granules were defined as those above 3 SD.

PC12 chromaffin cells = details: cited from earlier work
[3] = system: NK cell cortical actin filaments; details: cited from earlier work
NK cell = details: cited from earlier work
NK-92 cells = assay: Degranulation assay (Granzyme A activity, BLT esterase) of NK-92 cells activated by immobilized antibody to NKp30 and CD18; format: cell-based, human; details: thapsigargin 1 μM, positive control
Protocol: Immulon 4HBX 96 well flat bottom plates (Thermo) were coated with murine IgG (BD), anti-human NKp30, anti-human CD18, or both anti-NKp30 and anti-CD18 at 5 μg/mL in PBS overnight at 4° C. Plates were washed twice with PBS and blocked for 1 hr at room temperature with R10 media. One×10^5 cells were added to wells and plates were spun at 1000 rpm for two minutes before incubation at 37° C. For the timecourse degranulation assay, supernatants from spontaneous and activated wells were harvested at indicated times. For inhibitor treatments, media containing inhibitor or vehicle (DMSO) was added at indicated times. Inhibitors used were jasplakinolide (1 μM, Calbiochem), latrunculin A (10 μM, Sigma), cytochalasin D (10 μM, Sigma), and thapsigargin (1 μM, Calbiochem). Supernatatants were harvested after 60 minutes. For total release, cells were lysed in 0.5% Nonidet P40 (Accurate Chemical and Scientific). […] Samples were incubated for 30 minutes at 37° C. and absorbance was measured immediately at 405 nm. Percent total release was measured by subtracting the spontaneous release value from activated release values (A-S) and the total release value (T-S), and then dividing (A-S) by (T-S).

[4] = 10 μM LatA, 12-18 tracks, normalized to DMSO control

C/C=C/[C@H]1O[C@@](O)([C@@H](C)[C@H](O)[C@H](C)[C@H]2OC(=O)/C(OC)=C/C(C)=C/[C@@H](C)[C@@H](O)[C@@H](CC)[C@@H](O)[C@H](C)C/C(C)=C/C=C/[C@@H]2OC)C[C@@H](O[C@H]2C[C@@H](O)[C@H](OC(N)=O)[C@@H](C)O2)[C@@H]1C [concanamycin A, Concanamycin A]
green fluorescence measured by flow cytometry ([1]; Concanamycin A 100 nM for 90 minutes): robust increase in green fluorescence

COC(=O)Nc1nc2ccc(C(=O)c3cccs3)cc2[nH]1 [nocodazole]
movement of granules at the plasma membrane / cortex (resting human NK cells): arrests the movement of granules at the cortex

C=C1[C@@H](C)[C@H]2[C@H](Cc3ccccc3)NC(=O)[C@]23[C@H](OC(C)=O)/C=C/[C@@](C)(O)C(=O)[C@@H](C)C/C=C/[C@H]3[C@@H]1O [cytochalasin D]
accumulation of granules at the exocytic zone (neutrophils): seems to promote the accumulation of granules
movement of granules in the TIRF plane at the membrane (neutrophils): does not prevent movement of granules

CCCCCCCCCCCCCC(=O)O[C@@H]1[C@@H](C)[C@@]2(O)[C@@H](C=C(CO)C[C@]3(O)C(=O)C(C)=C[C@@H]23)[C@@H]2C(C)(C)[C@]12OC(C)=O [PMA, phorbol myristate acetate]
pHluorin fluorescence [1]: rapid increase in pHluorin fluorescence

C/C1=C/C(=O)O[C@@H]2C[C@@H](CC[C@H](C)/C=C\CC1)O[C@@](O)([C@@H]1CSC(=O)N1)C2 [Latrunculin B]
movement of granules at the plasma membrane / cortex (resting human NK cells): arrests those granules constitutively found at the plasma membrane
numbers of granules at the plasma membrane (resting human NK cells): does not result in increased numbers of granules

C/C1=C/C(=O)O[C@@H]2C[C@@H](CC[C@H](C)/C=C\C=C\CC1)O[C@@](O)([C@@H]1CSC(=O)N1)C2 [LatA, latrunculin A]
pre-degranulation motility of granules [2]: intact; also recorded: did not significantly affect granule movement prior to degranulation
pre-degranulation motility of granules ([2]; listed as Latrunculin A): did not affect pre-exocytosis movement
lytic granule total displacement [2, 4]: no significant differences
lytic granule track length [2, 4]: no significant differences
lytic granule velocity [2, 4]: no significant differences
timespan of green fluorescence (persistence following exocytosis) ([2]; 10 μM LatA, control normalized to 1.0±0.56, p=0.0441): 0.59±0.442
lifetime of red fluorescence (timespan pre-degranulation) ([2]; 10 μM LatA, control normalized to 1.0±0.87): 1.1±0.61 AU
median time for 50% survival of granules following degranulation (Kaplan-Meier) ([2]; 10 μM LatA, control treated cells 28.8 minutes): 13.7 min
area of granules post-degranulation ([2]; LatA vs DMSO, over 40 minutes p<0.0001, truncated at 20 minutes p=0.4438): slightly greater area
sum fluorescent intensity (MFI*area) of granules post-degranulation ([2]; LatA vs DMSO, up to forty minutes post-degranulation, p<0.0001 Mann Whitney U test): significantly greater sum fluorescent intensity (MFI*area) of granules from DMSO treated cells
number / accumulation of granules at the TIRF plane of the activated NK IS [2]: no observable defect in the number of granules that reached the TIRF plane
number / accumulation of granules at the TIRF plane of the activated NK IS ([2]; listed as Latrunculin A): gross accumulation of granules was not observed
expulsion of granule contents (PC12 chromaffin cells): more rapid expulsion of granule contents
depolymerization of cortical actin [3]: rapidly depolymerizes; also recorded: completely depolymerizes cortical actin
cytotoxic function (NK cell): abrogates cytotoxic function

C/C=C(/C)C(=O)O[C@H]1C(C)=C2[C@H]([C@@H]1OC(=O)CCCCCCC)[C@@](C)(OC(C)=O)C[C@H](OC(=O)CCC)[C@@]1(O)[C@H]2OC(=O)[C@@]1(C)O [Thapsigargin, thapsigargin]
effect on degranulation (NK-92 cells): positive effect on degranulation

C[C@H](CCC(=O)O)C[C@H](C)C[C@H](C)C(=O)/C=C(\O)[C@H](C)C[C@H](C)C/C=C/[C@@H](C)[C@@H](O)[C@@H](C)[C@@H](O)C[C@@H]1CC[C@@](C)([C@H]2CC[C@@](C)([C@@H](C)O)O2)O1 [ionomycin, Ionomycin]
pHluorin fluorescence [1]: rapid increase in pHluorin fluorescence

From patent US20150212064A1, “DEGRANULATION INDICATOR AND METHODS OF USE THEREOF” (priority 2011, published 2015)
